Among the data in US6559173B1, “3-(heteroarylamino)methylene-1,3-dihydro-2H-indol-2-ones as kinase inhibitors” (Allergan, Inc., priority 2001, dated 2003) are inhibition and IC50 values, retold here.

A value given as a limit tells only on which side of the number the result lay.

The test system of assay [1] is VEGF induced increases in intracellular calcium levels in HUVEC (human umbilical vein endothelial cells). The experiment in a line: VEGF Stimulated Ca++ signal assay (FLIPR). Format: cell-based. To be noted: VEGF 5 ng/mL; for inhibition at 10 µM: 30 min pre-incubation; for IC50: 0.01 to 10.0 μM. On the procedure: VEGF Stimulated Ca^++ Signal in vitro
Automated FLIPR (Fluorometric Imaging Plate Reader) technology was used to screen for inhibitors of VEGF induced increases in intracellular calcium levels in fluorescent dye loaded endothelial cells. HUVEC (human umbilical vein endothelial cells) (Clonetics) were seeded in 96-well fibronectin coated black-walled plates overnight @ 37° C./5%CO2. Cells were loaded with calcium indicator Fluo-4 for 45 minutes at 37° C. Cells were washed 4 times (Original Cell Wash, Labsystems) to remove extracellular dye. Test compounds were reconstituted in 100% DMSO and added to the cells to give a final DMSO concentration of 0.1%. For screening, cells were pre-incubated with test agents for 30 minutes, at a single concentration (10 μM) or at concentrations ranging from 0.01 to 10.0 μM followed by VEGF stimulation (5 ng/mL). Changes in fluorescence at 516 nm were measured simultaneously in all 96 wells using a cooled CCD camera. Data were generated by determining max-min fluorescence levels for unstimulated, stimulated, and drug treated samples. IC50 values for test compounds were calculated from % inhibition of VEGF stimulated responses in the absence of inhibitor.

For assay [2], the target named is T1, cytoplasmic domain of the human VEGF receptor (VEGFR-2) (Homo sapiens, UniProt P35968).
T1 construct: The cytoplasmic domain of the human VEGF receptor (VEGFR-2) was expressed as a Histidine-tagged fusion protein; His tag (Histidine-tagged fusion); made in house; host or cells: insect cells (engineered baculovirus)
Briefly: KDR Assay. The class given is biochemical. The note with it: His-VEGFR-2, 3.6 μM ATP, poly-Glu-Tyr (4:1). As for the experimental part: The cytoplasmic domain of the human VEGF receptor (VEGFR-2) was expressed as a Histidine-tagged fusion protein following infection of insect cells using an engineered baculovirus. His-VEGFR-2 was purified to homogeneity, as determined by SDS-PAGE, using nickel resin chromatography. Kinase assays were performed in 96 well microtiter plates that were coated overnight with 30 μg of poly-Glu-Tyr (4:1) in 10 mM Phosphate Buffered Saline (PBS), pH 7.2-7.4. The plates were incubated with 1% BSA and then washed four times with PBS prior to starting the reaction. Reactions were carried out in 120 μL reaction volumes containing 3.6 μM ATP in kinase buffer (50 mM Hepes buffer pH 7.4, 20 mM MgCl2, 0.1 mM MnCl2 and 0.2 mM Na3VO4). Test compounds were reconstituted in 100% DMSO and added to the reaction to give a final DMSO concentration of 5%. Reactions were initiated by the addition 0.5 ng of purified protein. Following a ten minute incubation at 25° C., the reactions were washed four times with PBS containing 0.05% Tween-20. 100 μl of a monoclonal anti-phosphotyrosine antibody-peroxidase conjugate was diluted 1:10000 in PBS-Tween-20 and added to the wells for 30 minutes. Following four washes with PBS-Tween-20, 100 μl of 0-Phenylenediamine Dihydrochloride in Phosphate-citrate buffer, containing urea hydrogen peroxide, was added to the wells for 7 minutes as a colorimetric substrate for the peroxidase. The reaction was terminated by the addition of 100 μl of 2.5N H2SO4 to each well and read using a microplate ELISA reader set at 492 nm. IC50 values for compound inhibition were calculated directly from graphs of optical density (arbitrary units) versus compound concentration following subtraction of blank values.

T1 sequence (P35968 786-1356 limits assumed): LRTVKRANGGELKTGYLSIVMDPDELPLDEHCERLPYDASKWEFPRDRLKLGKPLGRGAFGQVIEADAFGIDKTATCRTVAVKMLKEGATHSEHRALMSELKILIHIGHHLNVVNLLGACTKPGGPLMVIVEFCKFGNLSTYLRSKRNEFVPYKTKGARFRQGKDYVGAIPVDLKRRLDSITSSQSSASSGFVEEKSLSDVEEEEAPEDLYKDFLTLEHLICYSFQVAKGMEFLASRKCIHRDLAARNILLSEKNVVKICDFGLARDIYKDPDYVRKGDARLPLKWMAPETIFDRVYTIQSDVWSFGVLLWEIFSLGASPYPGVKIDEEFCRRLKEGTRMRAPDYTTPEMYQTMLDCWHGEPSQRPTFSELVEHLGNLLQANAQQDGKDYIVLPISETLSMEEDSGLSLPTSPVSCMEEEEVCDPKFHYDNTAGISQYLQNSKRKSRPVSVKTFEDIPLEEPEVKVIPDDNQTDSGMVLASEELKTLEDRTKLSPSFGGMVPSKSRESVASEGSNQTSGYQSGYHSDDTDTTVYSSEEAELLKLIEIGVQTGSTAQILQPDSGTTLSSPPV

As usually defined, the inhibition is the percentage by which the read-out fell short of the control. One may read the IC50 as the midpoint of a concentration-inhibition curve. Consider `CC(C)(C)c1cc(NC=C2C(=O)Nc3ccccc32)n[nH]1` [Example 22, 3-[(5-tert-Butyl-1H-pyrazol-3-ylamino)-methylene]-1,3-dihydro-indol-2-one], for which, in assay [1] (Homo sapiens), the inhibition at 10 µM was found to be 98.3% and the IC50 stood at 6090 nM. This molecule also returned an IC50 in assay [2] of 5780 nM.
For `Cc1cc(NC=C2C(=O)Nc3ccccc32)n[nH]1` [Example 23, 3-[(5-Methyl-1H-pyrazol-3-ylamino)-methylene]-1,3-dihydro-indol-2-one], the IC50 is 900 nM in assay [1], at most 1000 nM in assay [1] (Homo sapiens) and 370 nM in assay [2]. The inhibition at 10 µM in assay [1] (Homo sapiens) came to 94.7%.
Take `O=C1Nc2ccc(F)cc2C1=CNc1cc(-c2ccco2)[nH]n1` [Example 27, 5-Fluoro-3-[(5-furan-2-yl-1H-pyrazol-3-ylamino)-methylene]-1,3-dihydro-indol-2-one]: the IC50 in assay [1] is 1050 nM; in assay [1] (Homo sapiens), at most 1000 nM; in assay [2] it was 530 nM. The inhibition at 10 µM in assay [1] (Homo sapiens) worked out at 98.6%.
Take `Cc1oc(C(C)(C)C)cc1-c1cc(NC=C2C(=O)Nc3ccc(F)cc32)[nH]n1` [Example 28, 3-{[5-(5-tert-Butyl-2-methyl-furan-3-yl)-2H-pyrazol-3-ylamino]-methylene}-5-fluoro-1,3-dihydro-indol-2-one]: the inhibition at 10 µM in assay [1] (Homo sapiens) is 43.9%. The molecule also displayed an IC50 in assay [2] of 15700 nM.
In the case of `Cc1oc(C(C)(C)C)cc1-c1cc(NC=C2C(=O)Nc3ccccc32)[nH]n1` [Example 29, 3-{[5-(5-tert-Butyl-2-methyl-furan-3-yl)-2H-pyrazol-3-ylamino]-methylene}-1,3-dihydro-indol-2-one], the concentration for half-maximal inhibition (IC50) in assay [1] is 580 nM; in assay [1] (Homo sapiens) it was at most 1000 nM; in assay [2] it was 260 nM. For the same molecule, the inhibition at 10 µM in assay [1] (Homo sapiens) turned out to be 99.1%.
As to `Cc1cc(C)cc(-c2cc(NC=C3C(=O)Nc4ccccc43)[nH]n2)c1` [Example 32, 3-{[5-(3,5-Dimethyl-phenyl)2H-pyrazol-3-ylamino]-methylene}-1,3-dihydro-indol-2-one], in assay [1] (Homo sapiens), the inhibition at 10 µM stood at 46.1%. The same molecule came in with an IC50 in assay [2] of 9540 nM.
With `COc1cccc(-c2cc(NC=C3C(=O)Nc4ccccc43)[nH]n2)c1` [Example 33, 3-{[5-(3-Methoxy-phenyl)-2H-pyrazol-3-ylamino]-methylene}-1,3-dihydro-indol-2-one], the inhibition at 10 µM in assay [1] (Homo sapiens) worked out at 92.9%. Also, the IC50 turned out to be 4400 nM in assay [1] (Homo sapiens) and 1430 nM in assay [2].
`CN(C)c1ccc(-c2cc(NC=C3C(=O)Nc4ccccc43)[nH]n2)cc1` [Example 35, 3-{[5-(4-Dimethylamino-phenyl)-2H-pyrazol-3-ylamino]-methylene}-1,3-dihydro-indol-2-one]: the inhibition at 10 µM in assay [1] (Homo sapiens) was determined as 93%. Further, the IC50 in assay [1] (Homo sapiens) came to 3060 nM; in assay [2], 3490 nM.
`COc1ccccc1-c1cc(NC=C2C(=O)Nc3ccccc32)[nH]n1` [Example 37, 3-{[5-(2-Methoxy-phenyl)-2H-pyrazol-3-ylamino]-methylene}-1,3-dihydro-indol-2-one]: in assay [1] (Homo sapiens), the inhibition at 10 µM was determined as 13.6%. The same molecule yielded an IC50 in assay [2] of 12700 nM.
On to `CCOc1ccc(-c2cc(NC=C3C(=O)Nc4ccccc43)[nH]n2)cc1` [Example 38, 3-{[5-(4-Ethoxy-phenyl)-2H-pyrazol-3-ylamino]-methylene}-1,3-dihydro-indol-2-one], for which, in assay [1] (Homo sapiens), the inhibition at 10 µM came out at 70% and the IC50 is 6750 nM. In addition, in assay [2], the IC50 turned out to be 9900 nM.
Take `CC(C)(C)c1cc(NC=C2C(=O)Nc3ccccc32)no1` [Example 41, 3-[(5-tert-Butyl-isoxazol-3-ylamino)-methylene]-1,3-dihydro-indol-2-one]: in assay [1] (Homo sapiens), the inhibition at 10 µM came to 96.5% and the IC50 came out at 10000 nM. For the same molecule, the IC50 in assay [2] worked out at 780 nM.
Turning to `Cc1onc(NC=C2C(=O)Nc3ccccc32)c1Br` [Example 42, 3-[(4-Bromo-5-methyl-isoxazol-3-ylamino)-methylene]-1,3-dihydro-indol-2-one], in assay [1] (Homo sapiens), the inhibition at 10 µM came to 0.3%. This molecule also had an IC50 in assay [2] of 1910 nM.
As to `O=C1Nc2ccccc2C1=CNc1ccon1` [Example 43, 3-(Isoxazol-3-ylaminomethylene)-1,3-dihydro-indol-2-one], in assay [1] (Homo sapiens), the inhibition at 10 µM was 62.4% and the IC50 came to 7560 nM. This molecule had an IC50 in assay [2] of 2320 nM.
In the same order, the values of `Cc1cc(NC=C2C(=O)Nc3ccccc32)no1` [Example 44, 3-[(5-Methyl-isoxazol-3-ylamino)-methylene]-1,3-dihydro-indol-2-one] are 97%, 2550 nM and 650 nM.
For the molecule `Cc1noc(NC=C2C(=O)Nc3ccccc32)c1C` [Example 45, 3-[(3,4-Dimethyl-isoxazol-5-ylamino)-methylene]-1,3-dihydro-indol-2-one], in assay [1] (Homo sapiens), the inhibition at 10 µM came out at 84.9%. Besides, the IC50 in assay [1] (Homo sapiens) was 2550 nM; in assay [2], 980 nM.
Consider `CCn1nccc1NC=C1C(=O)Nc2ccccc21` [Example 46, 3-[(2-Ethyl-2H-pyrazol-3-ylamino)-methylene]-1,3-dihydro-indol-2-one], for which, in assay [1] (Homo sapiens), the inhibition at 10 µM came to 42.4%. Moreover, half-maximal inhibition in assay [2] (IC50) was put at 11600 nM.
Turning to `Cc1oc(C(C)(C)C)cc1-c1cc(NC=C2C(=O)Nc3ccccc32)n(C)n1` [Example 47, 3-{[5-(5tert-Butyl-2-methyl-furan-3-yl)-2-methyl-2H-pyrazol-3-ylamino]-methylene}-1,3-dihydro-indol-2-one], in assay [1] (Homo sapiens), the inhibition at 10 µM was 79.7% and the IC50 worked out at 5920 nM. The molecule further came in with an IC50 in assay [2] of 2510 nM.
Take `Cc1cc(NC=C2C(=O)Nc3cc(F)ccc32)no1` [Example 48, 6-Fluoro-3-[(5-methyl-isoxazol-3-ylamino)-methylene]-1,3-dihydro-indol-2-one]: the figures for the IC50 in assay [1] (Homo sapiens) and in assay [2] were 960 nM and 1390 nM, respectively.
On to `O=C1Nc2cc(F)ccc2C1=CNc1cc(-c2ccco2)[nH]n1` [Example 50, 6-Fluoro-3-[(5-furan-2-yl-1H-pyrazol-3-ylamino)-methylene]-1,3-dihydro-indol-2-one], for which the results for the IC50 in assay [1], in assay [1] (Homo sapiens) and in assay [2] were 590 nM, at most 1000 nM and 980 nM, respectively.
For `O=C1Nc2cc(F)ccc2C1=CNc1cc(-c2ccccc2)[nH]n1` [Example 51, 6-Fluoro-3-[(5-phenyl-1H-pyrazol-3-ylamino)-methylene]-1,3-dihydro-indol-2-one], the IC50 was found to be 2320 nM in assay [1] (Homo sapiens) and 1210 nM in assay [2].
Take `Cc1oc(C(C)(C)C)cc1-c1cc(NC=C2C(=O)Nc3cc(F)ccc32)[nH]n1` [Example 52, 3-{[5-(5-tert-Butyl-2-methyl-furan-3-yl)-2H-pyrazol-3-ylamino]-methylene}-6-fluoro-1,3-dihydro-indol-2-one]: the values for the IC50 in assay [1] (Homo sapiens) and in assay [2] were 3400 nM and 82300 nM, respectively.
In the same order, the values of `O=C1Nc2cc(F)ccc2C1=CNc1cc[nH]n1` [Example 53, 6-Fluoro-3-[(1H-pyrazol-3-ylamino)-methylene]-1,3-dihydro-indol-2-one] are 1380 nM and 2220 nM.
